Laboratory results: patent publication US20230271969A1, “NITROGEN-CONTAINING FUSED RING DERIVATIVE INHIBITOR, PREPARATION METHOD THEREFOR AND USE THEREOF” (Shanghai Hansoh Biomedical Co., Ltd., priority 2020, published 2023)

What was measured:
NK3 receptors [1] = biological target: T1, NK3 receptors (Homo sapiens, UniProt P29371); assay: Calcium ion fluidity (FLIPR) in cells with stable expression of NK3 receptors; format: cell-based; settings: calcium signal, antagonist mode, read-out: NK3R IC50 (nM) FLIPR
T1 construct: expressed in transfected cells
T1 sequence (P29371 1-465): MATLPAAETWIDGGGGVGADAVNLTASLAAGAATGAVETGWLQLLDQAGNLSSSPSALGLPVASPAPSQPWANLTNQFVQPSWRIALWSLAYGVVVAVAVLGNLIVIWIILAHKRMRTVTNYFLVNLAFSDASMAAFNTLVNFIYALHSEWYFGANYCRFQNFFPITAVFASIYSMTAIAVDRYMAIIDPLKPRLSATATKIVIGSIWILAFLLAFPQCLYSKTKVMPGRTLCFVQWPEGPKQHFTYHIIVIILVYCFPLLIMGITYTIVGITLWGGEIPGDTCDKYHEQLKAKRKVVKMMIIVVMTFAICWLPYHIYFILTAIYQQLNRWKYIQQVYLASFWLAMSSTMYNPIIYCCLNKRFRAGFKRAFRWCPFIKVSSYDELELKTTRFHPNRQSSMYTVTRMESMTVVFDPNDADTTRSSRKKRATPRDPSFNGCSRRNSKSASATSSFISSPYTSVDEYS

NK3 receptors [2] = biological target: T1, NK3 receptors; assay: Antagonism of IP1 in HEK293 cells with stable expression of NK3; format: cell-based; settings: agonist Senktide 3 nM, read-out: NK3R IC50 (nM) IP1

SMILES: C[C@@H]1c2nnc(-c3nc4cnc(Cl)cc4s3)n2CCN1C(=O)c1ccc(F)cc1 [Example 37, (R)-(3-(6-Chlorothiazolo[4,5-c]pyridin-2-yl)-8-methyl-5,6-dihydro-[1,2,4]triazolo[4,3-a]pyrazin-7(8H)-yl)(4-fluorophenyl)methanone]
- IC50 (NK3 receptors [1]): 48.9 nM
- IC50 (NK3 receptors [2]): 56.5 nM

SMILES: [2H]c1cc(C(=O)N2CCn3c(-c4nc(Cl)ns4)nnc3[C@H]2C)ccc1F [Example 56, (R)-(3-(3-Chloro-1,2,4-thiadiazol-5-yl)-8-methyl-5,6-dihydro-[1,2,4]triazolo[4,3-a]pyrazin-7(8H)-yl)(4-fluorophenyl-3-d)methanone]
- IC50 (NK3 receptors [1]): 155 nM
- IC50 (NK3 receptors [2]): 76 nM
